“And” between values parts separate entries of the source, which are not always exact repeats. Equal values may be shown once. Marks after values point to notes of the source that are not given here.
What was measured:
[1] = Ex vivo permeation, Franz cells; format: in vitro ADME, porcine
Procedure: Porcine buccal mucosa was used to evaluate the buccal permeation of the phenolic compounds in the extract and the CS-loaded OFs (n = 9). The porcine buccal mucosa was purchased in a local butcher shop, not requiring ethical approval. A Franz cell assembly (9 mm clear jacketed Franz cell with a flat ground joint, 5 ml receptor volume, and permeation area of 0.785 cm^2; PermeGear, Inc., USA) was used. This experiment followed the methodology described by Rodrigues et al. ([32]). In the Franz apparatus, the porcine buccal mucosa was positioned with the cheek side facing the donor chamber, which contained 500 µl (1,000 μg/ml) of the CS extract or the CS-loaded OFs (two square films (2 × 2 cm) with […] of thickness were dissolved in 4 ml of artificial saliva; donor concentration was normalized to ensure equivalence between the extract solution and the film formulation). The receptor chamber was filled with 5 ml PBS, maintained at 37°C, and stirred continuously at 150 rpm. The volume was maintained through the experiments.
(§1) The identification and quantification of the phenolic compounds present in the extract and the OFs, as well as the compounds that permeated from the OFs through in vitro and ex vivo assays, were conducted using an LC-ESI-LTQ-Orbitrap-HRMS equipment with an Accela chromatograph (Thermo Scientific, Hemel Hempstead, UK), a photodiode array detector, a quaternary pump, and a temperature-controlled autosampler coupled to a high-resolution LTQ Orbitrap Velos mass spectrometer (Thermo Scientific, Hemel Hempstead, UK) with an ESI source in negative mode ([33], [34]). The system was controlled using the Xcalibur v3.0 software (ThermoFisher Scientific, Hemel Hempstead, UK). Elution was performed on an Acquity™ UPLC® BEH C18 Column (2.1 × 100 mm, i.d., 1.7 µm particle size, Waters Corporation, Wexford, Ireland) maintained at 30°C.
(§2) Gradient elution was performed with water (A) and acetonitrile (B), both with 0.1% formic acid, with a flow rate and injection volume of 450 µl/min and 5 µl, respectively. The solvent gradient (v/v) of B [t (min), %B] was set as follows: (0, 0), (2, 0), (4, 30), (8, 100), (10, 100), (11, 0), and (14, 0). The samples were analyzed in the full scan mode at a resolving power of 30,000 and m/z 600. Data-dependent MS/MS events were acquired at a resolution of 15,000. Most intense ions were detected via the FTMS mode-triggered data-dependent acquisition mode. Ions that were not sufficiently intense for a data-dependent scan were explored in MSn mode. Precursors were fragmented by collision-induced dissociation using a C-trap with a normalized collision energy (35 V) and an activation time of 10 ms. […] Compounds whose theoretical [M–H]^− values exceeded the MS¹ acquisition range (m/z 100–600) were annotated based on characteristic MSⁿ fragment ions detected within the scan window.
Quantitative analysis was performed by using a validated chromatographic method ([38]).

TR146 cells = experiment: In vitro permeation, buccal model; format: in vitro ADME, human
Procedure: The in vitro permeability of the bioactive compounds present in OFs (n = 9) was determined using a co-culture model composed of TR146 ([31]). The extract and the CS-loaded OFs were added to the apical side of the model as a stock solution. […] The Transepithelial Electrical Resistance (TEER) of the model was evaluated before, during, and at the end of the permeability assay using an EVOM Epithelial Volthometer equipped with a chopstick electrode (World Precision Instruments, Sarasota, FL, USA).
as §1, §2

SMILES	Quantification of permeated compounds ([1]; CS extract)	Quantification of permeated compounds ([1]; CS-loaded OFs)	Permeation (%) ([1]; from CS extract, 15 min)	Permeation (%) ([1]; from CS extract, 30 min)	Quantification of permeated compounds (TR146 cells; CS extract)	Quantification of permeated compounds (TR146 cells; CS-loaded OFs)	Permeation (%) (TR146 cells; from CS extract, 15 min)	Permeation (%) (TR146 cells; from CS extract, 30 min)	Permeation (%) (TR146 cells; from CS extract, 45 min)	Permeation (%) (TR146 cells; from CS extract, 60 min)	Permeation (%) (TR146 cells; from CS extract, 90 min)	Permeation (%) (TR146 cells; from CS extract, 120 min)	Permeation (%) (TR146 cells; from CS extract, 180 min)	Permeation (%) (TR146 cells; from CS extract, 240 min)	also measured
O=C(O)CCCCC(=O)O [Adipic acid]	93.48 ± 2.39^b mg/ml	11.84 ± 2.11^a mg/g film	11.41 ± 0.03^a %	9.47 ± 0.07^a %	–	–	–	–	–	–	–	–	–	–	Permeation (%) ([1]; from CS-loaded OFs, 15 min): 98.93 ± 2.05^b %; Permeation (%) ([1]; from CS-loaded OFs, 30 min): 97.59 ± 2.36^b %
COc1cc(-c2oc3cc(O)cc(O)c3c(=O)c2O)ccc1O [Isorhamnetin]	–	–	–	–	0.38 ± 0.04^a mg/ml	0.38 ± 0.01^a mg/g film	99.26 ± 2.34^a %	99.73 ± 1.83^a %	98.36 ± 3.74^a %	99.10 ± 2.96^a %	99.00 ± 4.70^a %	98.36 ± 1.07^a %	99.08 ± 2.69^a %	98.36 ± 1.91^a %	Permeation (%) (TR146 cells; from CS extract, 240 min, listed as isorhamnetin): 98.36%; Permeation (%) (TR146 cells; from CS-loaded OFs, 15 min): 105.62 ± 3.71^a %; Permeation (%) (TR146 cells; from CS-loaded OFs, 30 min): 105.51 ± 3.25^a %; Permeation (%) (TR146 cells; from CS-loaded OFs, 45 min): 105.05 ± 2.24^a %; Permeation (%) (TR146 cells; from CS-loaded OFs, 60 min): 101.34 ± 2.95^a %; Permeation (%) (TR146 cells; from CS-loaded OFs, 90 min): 98.29 ± 2.14^a %; Permeation (%) (TR146 cells; from CS-loaded OFs, 120 min): 99.38 ± 1.47^a %; Permeation (%) (TR146 cells; from CS-loaded OFs, 180 min): 98.29 ± 1.94^a %; Permeation (%) (TR146 cells; from CS-loaded OFs, 240 min): 100.20 ± 3.56^a %; Permeation (%) (TR146 cells; from CS-loaded OFs, 240 min, listed as isorhamnetin): 100.20%
N[C@@H](Cc1c[nH]c2ccccc12)C(=O)O [L-Tryptophan]	4.18 ± 0.26^a mg/ml	1.18 ± 0.09^a mg/g film	37.21 ± 0.01^a %	27.24 ± 0.23^a %	–	–	–	–	–	–	–	–	–	–	–
COC(=O)c1cc(O)c(O)c(O)c1 [Methyl gallate]	–	–	–	–	0.37 ± 0.01^a mg/ml	0.37 ± 0.03^a mg/g film	37.24 ± 0.04^a %	–	–	–	–	–	–	–	–
O[C@H]1[C@H](O)[C@@H](O)[C@H](O)[C@@H](O)[C@H]1O [Myo-Inositol]	–	–	–	–	0.54 ± 0.01^a mg/ml	0.42 ± 0.01^a mg/g film	39.51 ± 0.87^a^,^b %	79.23 ± 1.43c %	12.98 ± 0.01^a %	33.80 ± 0.08^a^,^b %	30.46 ± 0.05^a^,^b %	41.34 ± 1.01^a^,^b %	25.02 ± 0.09^a^,^b %	56.50 ± 0.37^c %	–

More lines, main results first:

Quantification of permeated compounds ([1]; CS extract)	Quantification of permeated compounds ([1]; CS-loaded OFs)	Permeation (%) ([1]; from CS extract, 15 min)	Permeation (%) ([1]; from CS extract, 30 min)	Quantification of permeated compounds (TR146 cells; CS extract)	Quantification of permeated compounds (TR146 cells; CS-loaded OFs)	Permeation (%) (TR146 cells; from CS extract, 15 min)	Permeation (%) (TR146 cells; from CS extract, 30 min)	Permeation (%) (TR146 cells; from CS extract, 45 min)	Permeation (%) (TR146 cells; from CS extract, 60 min)	Permeation (%) (TR146 cells; from CS extract, 90 min)	Permeation (%) (TR146 cells; from CS extract, 120 min)	Permeation (%) (TR146 cells; from CS extract, 180 min)	Permeation (%) (TR146 cells; from CS extract, 240 min)	SMILES	also measured
7.15 ± 2.50^b mg/ml	1.27 ± 0.05^a mg/g film	10.61 ± 0.08^a %	6.26% and 6.26 ± 0.75^a %	–	–	–	–	–	–	–	–	–	–	O=c1oc2c(O)c(O)cc3c(=O)oc4c(O)c(O)cc1c4c23 [Ellagic acid]	Permeation (%) ([1]; from CS-loaded OFs, 15 min): 35.46 ± 0.32^b %; Permeation (%) ([1]; from CS-loaded OFs, 30 min): 60.75% and 60.75 ± 1.62^c %
–	–	–	–	0.41 ± 0.03^a mg/ml	0.36 ± 0.02^a mg/g film	97.57 ± 1.07^a %	96.86 ± 2.25^a %	97.35 ± 1.74^a %	98.05 ± 3.81^a %	97.75 ± 5.73^a %	97.73 ± 6.01^a %	97.36 ± 2.57^a %	96.86 ± 1.86^a %	Oc1cc(O)c2c(c1)O[C@H](c1ccc(O)c(O)c1)[C@H](O)C2 [Epicatechin]	Permeation (%) (TR146 cells; from CS extract, 240 min, listed as epicatechin): 96.86%
5.52 ± 0.24^b mg/ml	0.42 ± 0.01^a mg/g film	8.67 ± 0.03^a %	8.57 ± 1.47^a %	–	–	–	–	–	–	–	–	–	–	N[C@@H](Cc1ccccc1)C(=O)O [L-Phenylalanine]	–
